According to the METLIN SMRT retention time set (Domingo-Almenara et al. 2019):

Assay: gradient 5% acetonitrile 3 min, to 50% in 2 min, to 85% in 15 min, held 3 min, 100 µL/min
Settings: column: Zorbax Extend-C18 2.1 x 50 mm; eluents: water / acetonitrile, 0.1% formic acid
Outline: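 Over 3 months, pure standards in mixtures of ~100 molecules were run by HPLC coupled to a quadrupole time-of-flight mass spectrometer in positive and negative ionization mode. The column was a Zorbax Extend-C18 (2.1 × 50 mm, 1.8 μm) at 100 μL/min, eluted with water and acetonitrile each holding 0.1% formic acid, with 40 μL dead and 900 μL dwell volumes. Retention time was determined from adduct peaks chosen by software and checked manually.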

Row | SMILES | RP-LC retention time [s]
1 | CSc1nc2c(c(=O)n1-c1ccc([N+](=O)[O-])cc1)SCC2 | 816
2 | Cc1cc(C)cc(C(=O)N2CCCC(C(=O)NCCc3cccs3)C2)c1 (stereo unspecified) | 850
3 | CNC(=O)c1c(NC(=O)C2COc3ccccc3O2)sc2c1CCCC2 (stereo unspecified) | 1030
4 | O=C(Cn1c(=O)c(CCC(=O)NC2CCCC2)nc2ccccc21)Nc1ccc(F)cc1 | 808
5 | CCN(CC)S(=O)(=O)c1ccc(C)c(-c2nnc(-c3ccccc3Cl)o2)c1 | 1140
6 | O=C(Nc1nc2ccc(Cl)cc2s1)C1CCN(C(=O)C2Sc3ccccc3NC2=O)CC1 (stereo unspecified) | 903
7 | NS(=O)(=O)c1ccc(NS(=O)(=O)c2cc(-c3noc(C4CCCC4)n3)cs2)cc1 | 882
8 | O=C(c1ccc(Br)o1)N1C[C@@H](CO)[C@H](c2ccncc2)C1 | 515
9 | CCCCn1nc2ccc(S(=O)(=O)N3CCCCC3)cn2c1=O | 887
10 | CC(=O)Nc1ccc(-n2cnc(C(=O)N3CCC(C(N)=O)CC3)c2)nc1 | 564
11 | O=c1c2cnc3ncnn3c2ccn1C1CC1 | 583
12 | CCN(CC)CCNC(=O)c1cn(C)nc1S(=O)(=O)N1CCN(c2cc(Cl)ccc2C)CC1 | 756
13 | COc1ccc(NC(=O)Nc2cccc(-c3ccc(N4CCCCC4)nn3)c2)c(OC)c1 | 719
14 | COc1ccc(N2CCN(c3cc(SCC(=O)Nc4ccc(F)cc4C)ncn3)CC2)cc1 | 959
15 | O=C(NCCC1CCN(C(=O)Nc2cc(F)ccc2F)CC1)c1ccoc1 | 758
16 | O=C(CCC1CCCN(c2cc(NC3CC3)ncn2)C1)NC1CCN(Cc2ccccc2)CC1 (stereo unspecified) | 570
17 | CC(C)(C)NCC(O)COc1cccc2[nH]c(=O)[nH]c12 (stereo unspecified) | 603
18 | Cc1ccnc(Nc2nc(C)c(C(=O)N3CCC(C)CC3)s2)c1 | 779
19 | Cn1c(=O)n(CC(=O)Nc2cccc(Cl)c2)c(=O)c2cnc(-c3ccccc3)nc21 | 1050
20 | Cc1ccc(C(C)NC(=O)C2CCCN(c3nc4c(s3)c(C)nn4-c3ccc(F)cc3)C2)cc1 (stereo unspecified) | 1230
21 | Cc1nccn1CCNC(=O)C(=O)Nc1ccc(OC(F)(F)F)cc1 | 580
22 | Cc1ccc(-c2nc3cnccn3c2Nc2cccc(C(F)(F)F)c2)cc1 | 972

Row | SMILES | RP-LC retention time [s]
23 | Cc1cccc(CNC(=O)C2CCCN(c3ccc(=O)n(-c4ccc(C)c(Cl)c4)n3)C2)c1 (stereo unspecified) | 984
24 | CCN1CCN(c2cc(C)c3cc(NC(=S)NCCC(C)C)ccc3n2)CC1 | 588
25 | O=C(Cn1nc(-c2ccccc2)c2cc(Cl)ccc21)N1CCN(c2ccccn2)CC1 | 757
26 | CCc1ccccc1NC(=O)N(C)CC1CCOCC1 | 730
27 | CCc1nc2cc(-c3noc(-c4ccncc4)n3)ccc2o1 | 959
28 | Cc1nsc2ncc(C(=O)N3CCOCC3)c(N3CCC(C(=O)Nc4ccccc4F)CC3)c12 | 758
29 | Cn1ccc(C(=O)N2CC(n3cc(COc4ccc(F)cc4)nn3)C2)n1 | 722
30 | COc1cc(OC)cc(C(=O)N2CCC3(CC2)NC(=O)c2cc(Cl)ccc2N3C)c1 | 826
31 | N#Cc1cccc(S(=O)(=O)N2CCc3nc(-c4ccccc4)ncc3C2)c1 | 987
32 | O=C(CN1C(=O)CCCc2cc(S(=O)(=O)N3CCCCC3)ccc21)NCc1ccc(F)cc1 | 862
33 | CCN(Cc1ccccc1)C(=O)C1CCCN(S(=O)(=O)c2ccc3c(c2)CCCC(=O)N3)C1 (stereo unspecified) | 821
34 | O=C(O)C1CN(C(=O)c2ccc3c(c2)OCO3)C1 | 579
35 | O=C(NCCC1=CCCCC1)C1CC(=O)N(C2CCCCCC2)C1 (stereo unspecified) | 906
36 | CC(C)c1ccc(N2C(=O)C3N=NN(Cc4nc(-c5ccccc5Br)no4)C3C2=O)cc1 (stereo unspecified) | 1140
37 | COc1ccc(C(=O)N2CCc3nc(CNC(=O)C4CCC4)n(C)c3C2)cn1 | 585
38 | Cc1ccc(Nc2c(-c3ccc(C)cc3)nc3ncccn23)cc1 | 802
39 | O=C(NC1CCCC1)N1CCC(c2noc(-c3cccnc3)n2)C1 (stereo unspecified) | 701
40 | O=C(Nc1ccc(Cn2cnc(C(=O)NCc3ccc(F)cc3)c2)cc1)c1cccc(F)c1 | 769
41 | Cc1ccsc1CCNC(=O)C1CCN(C(=O)c2cc(-c3cccnc3)n[nH]2)CC1 | 625
42 | Cc1cc(=O)n(CC(=O)NCc2cccs2)c(N(C)Cc2ccccc2)n1 | 698
43 | CN1c2cc(F)ccc2C(=O)NC12CCN(C(=O)c1ccc(Cl)cc1)CC2 | 785
44 | O=C(NC1CCCCC1)C1CCCN(c2ccncc2)C1 (stereo unspecified) | 604

Row | SMILES | RP-LC retention time [s]
45 | CCN(CC)C(=O)c1ccc2c(c1)CCCN2S(C)(=O)=O | 748
46 | COc1cc(-c2noc(Cc3nnc(-c4cc(F)cc(F)c4)o3)n2)cc(OC)c1OC | 968
47 | CCn1cnc2ccc(-c3noc(-c4ccc(OC)cc4)n3)cc21 | 753
48 | O=C(c1ccoc1)N1CCc2cc(-c3csc(C4CC4)n3)ccc21 | 1060
49 | CCC(=O)NCc1nc2c(n1C)CN(S(=O)(=O)c1cccc(Cl)c1)CC2 | 570
50 | O=C1CN(Cc2ccc(F)cc2Cl)C2(CCCC2)CN1 | 668
51 | CCN(C(=O)C1CCCN1S(=O)(=O)c1cc2c(cc1C)NC(=O)CO2)c1cccc(C)c1 (stereo unspecified) | 818
52 | O=C(OCc1cc(-c2cccs2)on1)c1ccc(Cn2ccnc2)cc1 | 600
53 | COc1ccc(CNC(=O)C2CCCN2S(=O)(=O)c2cc3c(cc2Cl)NC(=O)CO3)cc1 (stereo unspecified) | 745
54 | COc1ccc(Cn2nc3c(S(=O)(=O)N4CCCCCC4)cccn3c2=O)cc1F | 941
55 | Cc1cccc2nnc(N3CCCC(C(=O)NC4CCCC4)C3)n12 (stereo unspecified) | 597
56 | O=C(CCc1c(-c2ccc(Br)cc2)nc2ccccn12)NCc1ccc(F)cc1 | 701
57 | O=C(c1ccc(=O)[nH]n1)N1CCN(S(=O)(=O)C2CC2)CC1 | 552
58 | O=C(NCc1cccnc1)C1c2ccccc2C(=O)N1C1CCCCCC1 (stereo unspecified) | 624
59 | COc1ccc(F)cc1S(=O)(=O)Nc1ccc(CC(=O)NCC(F)(F)F)cc1 | 869
60 | COC(=O)c1c(C)sc(-c2c(-c3ccc(Br)cc3)[nH]c3[nH]c(=O)[nH]c(=O)c23)c1O | 791
61 | C1=CC2(C=C1)OC21CCC2(C=CC3(C2)OC3C2CCCCC2)CC1 (stereo unspecified) | 798
62 | CCC(C)NC(=O)CN1CCN(C(=O)Nc2ccc(Cl)cc2)CC1=O (stereo unspecified) | 686
63 | O=C(Cn1c(=O)c2cc(-c3ccco3)nn2c2ncccc21)Nc1ccc(F)c(F)c1 | 843
64 | CN(C)c1ccc(/C=C2\C(=O)Nc3ccccc32)cc1 | 1010
65 | CN1C(=O)c2cccnc2Sc2cc(C(=O)NCc3ccccc3Cl)ccc21 | 806
66 | COc1ccccc1NS(=O)(=O)c1cn(CC(C)C)c2ncccc12 | 979
